The source of these data is patent US12195482B1 (Arcus Biosciences, Inc., priority 2022, dated 2025).

Molecules are shown by their SMILES.

For one assay, the target named is T1, recombinant human TYRO3 (Homo sapiens, UniProt Q06418).
T1 construct: purchased Invitrogen
T1 sequence (Q06418 41-890): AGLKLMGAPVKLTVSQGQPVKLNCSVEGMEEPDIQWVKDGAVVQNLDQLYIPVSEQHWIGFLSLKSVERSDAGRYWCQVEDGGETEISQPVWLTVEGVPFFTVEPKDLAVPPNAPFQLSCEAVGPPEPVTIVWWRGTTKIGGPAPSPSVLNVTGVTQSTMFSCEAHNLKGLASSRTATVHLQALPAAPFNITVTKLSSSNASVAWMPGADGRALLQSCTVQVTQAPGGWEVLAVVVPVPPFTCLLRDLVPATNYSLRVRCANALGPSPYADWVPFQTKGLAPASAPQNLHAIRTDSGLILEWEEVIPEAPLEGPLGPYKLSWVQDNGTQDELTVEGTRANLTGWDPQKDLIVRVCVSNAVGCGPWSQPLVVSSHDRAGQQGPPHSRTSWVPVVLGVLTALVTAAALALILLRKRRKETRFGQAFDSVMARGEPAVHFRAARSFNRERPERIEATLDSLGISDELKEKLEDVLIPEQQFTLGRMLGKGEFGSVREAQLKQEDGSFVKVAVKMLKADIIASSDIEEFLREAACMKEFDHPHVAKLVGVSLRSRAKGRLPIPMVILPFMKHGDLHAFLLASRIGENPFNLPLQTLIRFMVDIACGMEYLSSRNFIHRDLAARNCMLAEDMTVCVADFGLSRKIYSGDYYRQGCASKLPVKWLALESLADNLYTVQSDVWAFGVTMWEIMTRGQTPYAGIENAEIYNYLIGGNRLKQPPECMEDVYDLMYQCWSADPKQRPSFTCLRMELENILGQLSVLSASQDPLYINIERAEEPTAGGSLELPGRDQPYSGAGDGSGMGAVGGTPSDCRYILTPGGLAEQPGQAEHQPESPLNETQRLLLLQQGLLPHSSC
As to the kind of experiment: Biochemical potency, HTRF KinEASE-TK kinase assay. The conditions noted are these: 1 nM TYRO3, 700 μM ATP. The essentials:
(§1)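 HTRF 665/620 readout after a 2 h RT kinase reaction (final 700 μM ATP, 800 nM biotinylated TK substrate, 1% DMSO, HEPES pH 7.4 buffer) gave percent activity. Final enzyme was 5 nM for AXL, 1 nM for TYRO3 or MER, each preincubated 1 h with compound.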

A further assay addresses T2, Axl (Homo sapiens, UniProt P30530).
T2 sequence (P30530 26-894): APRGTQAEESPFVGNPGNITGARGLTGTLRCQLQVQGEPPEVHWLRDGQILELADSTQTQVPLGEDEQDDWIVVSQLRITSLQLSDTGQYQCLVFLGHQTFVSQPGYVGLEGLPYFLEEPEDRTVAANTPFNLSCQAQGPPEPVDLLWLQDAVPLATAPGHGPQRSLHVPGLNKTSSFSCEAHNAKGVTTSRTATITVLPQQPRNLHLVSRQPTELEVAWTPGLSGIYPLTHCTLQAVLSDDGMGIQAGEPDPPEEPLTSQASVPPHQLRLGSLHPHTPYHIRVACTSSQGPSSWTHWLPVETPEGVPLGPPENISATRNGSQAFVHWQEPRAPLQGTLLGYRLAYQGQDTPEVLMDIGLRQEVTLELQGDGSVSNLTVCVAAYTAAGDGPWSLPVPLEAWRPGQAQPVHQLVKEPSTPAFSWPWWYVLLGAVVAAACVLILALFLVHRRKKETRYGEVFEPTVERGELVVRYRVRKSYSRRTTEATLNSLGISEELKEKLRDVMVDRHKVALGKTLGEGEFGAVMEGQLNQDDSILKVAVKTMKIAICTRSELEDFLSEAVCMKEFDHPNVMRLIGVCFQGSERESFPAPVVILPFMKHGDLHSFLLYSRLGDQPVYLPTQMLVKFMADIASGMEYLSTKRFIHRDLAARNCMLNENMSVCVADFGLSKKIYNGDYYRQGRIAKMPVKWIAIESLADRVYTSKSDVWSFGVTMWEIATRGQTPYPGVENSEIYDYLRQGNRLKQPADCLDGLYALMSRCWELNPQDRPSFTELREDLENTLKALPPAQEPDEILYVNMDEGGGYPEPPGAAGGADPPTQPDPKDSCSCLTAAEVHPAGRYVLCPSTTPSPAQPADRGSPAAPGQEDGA
As to the kind of experiment: Biochemical potency, HTRF KinEASE-TK kinase assay. Also noted: purchased Invitrogen. The following applies: 5 nM AXL, 700 μM ATP. The essentials: as §1
On the technique in general: Time-resolved FRET reads energy transfer from a long-lived donor to a nearby acceptor.

With `O=C1CCCN1c1cccnc1-c1ccc(-c2n[nH]c3ncc(-c4ccc5c(c4)CC[C@@H](N4C6COCC4C6)CC5)cc23)cc1` [Example 177, 1-[2-(4-{5-[(7S)-7-{3-Oxa-6-azabicyclo[3.1.1]heptan-6-yl}-6,7,8,9-tetrahydro-5H-benzo[7]annulen-2-yl]-1H-pyrazolo[3,4-b]pyridin-3-yl}phenyl)pyridin-3-yl]pyrrolidin-2-one], the IC50 on recombinant human TYRO3 is 100 to 1000 nM; against Axl, less than 100 nM.

In the case of `Cc1ccnc(-c2ccc(-c3n[nH]c4ncc(-c5ccc6c(c5)CC[C@@H](N5C7COCC5C7)CC6)cc34)cc2)c1C` [Example 118, 6-[(7S)-2-{3-[4-(3,4-Dimethylpyridin-2-yl)phenyl]-1H-pyrazolo[3,4-b]pyridin-5-yl}-6,7,8,9-tetrahydro-5H-benzo[7]annulen-7-yl]-3-oxa-6-azabicyclo[3.1.1]heptane], the IC50 on recombinant human TYRO3 and against Axl was less than 100 nM in each case.

Take `CC(C)(O)c1ccccc1-c1ccc(-c2n[nH]c3ncc(-c4ccc5c(c4)CC[C@@H](N4C6COCC4C6)CC5)cc23)cn1` [Example 113, 2-[2-(5-{5-[(7S)-7-{3-Oxa-6-azabicyclo[3.1.1]heptan-6-yl}-6,7,8,9-tetrahydro-5H-benzo[7]annulen-2-yl]-1H-pyrazolo[3,4-b]pyridin-3-yl}pyridin-2-yl)phenyl]propan-2-ol]: the values for the IC50 on recombinant human TYRO3 and against Axl were 100 to 1000 nM and less than 100 nM, respectively.

Take `Cc1cc(F)cnc1-c1ccc(-c2c[nH]c3ncc(-c4ccc5c(c4)CC[C@@H](N4C6COCC4C6)CC5)cc23)cc1` [Example 29, 6-[(7S)-3-[3-[4-(5-Fluoro-3-methylpyridin-2-yl)phenyl]-1H-pyrrolo[2,3-b]pyridin-5-yl]-6,7,8,9-tetrahydro-5H-benzo[7]annulen-7-yl]-3-oxa-6-azabicyclo[3.1.1]heptane]: the results for the IC50 on recombinant human TYRO3 and at Axl were 100 to 1000 nM and less than 100 nM, respectively.

In the case of `CN(C)C(=O)c1cccnc1-c1ccc(-c2n[nH]c3ncc(-c4ccc5c(c4)CC[C@@H](N4C6COCC4C6)CC5)cc23)cc1` [Example 167, N,N-Dimethyl-2-(4-{5-[(7S)-7-{3-oxa-6-azabicyclo[3.1.1]heptan-6-yl}-6,7,8,9-tetrahydro-5H-benzo[7]annulen-2-yl]-1H-pyrazolo[3,4-b]pyridin-3-yl}phenyl)pyridine-3-carboxamide], the IC50 at recombinant human TYRO3 and against Axl was less than 100 nM throughout.

For the compound `Cc1nc(-c2ccc(-c3n[nH]c4ncc(-c5ccc6c(c5)CC[C@@H](N5C7COCC5C7)CC6)cc34)cc2)n(C)n1` [Example 23, 6-[(7S)-2-{3-[4-(1,3-Dimethyl-1H-1,2,4-triazol-5-yl)phenyl]-1H-pyrazolo[3,4-b]pyridin-5-yl}-6,7,8,9-tetrahydro-5H-benzo[7]annulen-7-yl]-3-oxa-6-azabicyclo[3.1.1]heptane], the IC50 on recombinant human TYRO3 and against Axl was less than 100 nM throughout.

As to `Cn1ncnc1-c1ccc(-c2n[nH]c3ncc(-c4ccc5c(c4)CC[C@@H](N4C6COCC4C6)CC5)cc23)cc1` [Example 110, 6-[(7S)-2-{3-[4-(1-Methyl-1H-1,2,4-triazol-5-yl)phenyl]-2H-pyrazolo[3,4-b]pyridin-5-yl}-6,7,8,9-tetrahydro-5H-benzo[7]annulen-7-yl]-3-oxa-6-azabicyclo[3.1.1]heptane], the IC50 on recombinant human TYRO3 and against Axl was less than 100 nM each time.

On to `Cc1ccccc1-c1ccc(-c2c[nH]c3ncc(-c4ccc5c(c4)CC[C@@H](N4C6COCC4C6)CC5)cc23)nc1` [Example 97, 6-[(7S)-2-{3-[5-(2-Methylphenyl)pyridin-2-yl]-1H-pyrrolo[2,3-b]pyridin-5-yl}-6,7,8,9-tetrahydro-5H-benzo[7]annulen-7-yl]-3-oxa-6-azabicyclo[3.1.1]heptane], for which the IC50 was more than 1000 nM on recombinant human TYRO3 and less than 100 nM against Axl.

For the compound `CS(=O)(=O)c1cccnc1-c1ccc(-c2n[nH]c3ncc(-c4ccc5c(c4)CC[C@@H](N4C6COCC4C6)CC5)cc23)cc1` [Example 101, 6-[(7S)-2-{3-[4-(3-Methanesulfonylpyridin-2-yl)phenyl]-1H-pyrazolo[3,4-b]pyridin-5-yl}-6,7,8,9-tetrahydro-5H-benzo[7]annulen-7-yl]-3-oxa-6-azabicyclo[3.1.1]heptane], the IC50 on recombinant human TYRO3 and at Axl was less than 100 nM each time.

For `Cc1ncc(C)c(-c2ccc(-c3n[nH]c4ncc(-c5ccc6c(c5)CC[C@@H](N5C7COCC5C7)CC6)cc34)cc2)n1` [Example 122, 6-[(7S)-2-{3-[4-(2,5-Dimethylpyrimidin-4-yl)phenyl]-1H-pyrazolo[3,4-b]pyridin-5-yl}-6,7,8,9-tetrahydro-5H-benzo[7]annulen-7-yl]-3-oxa-6-azabicyclo[3.1.1]heptane], the IC50 on recombinant human TYRO3 and against Axl was less than 100 nM in each case.

One may read the IC50 as the midpoint of a concentration-inhibition curve.
